Data as given in patent US20260347353A1, “INDOLIZINE DERIVATIVES FOR TREATING CANCER” (Antares Therapeutics, Inc., priority 2022, published 2026).

Assays:
[1] = tested on: NCIH1299-inducible p53 Y220C cells; assay: Cell Proliferation Assay (CellTiter-Glo), NCIH1299-inducible p53 Y220C; type: cell-based; conditions: Homo sapiens, NCI-H1299, 120 h, 5 days, read-out: CTG H1299 P53 Y220C IC50
Protocol: (§1) Inducible p53 Y220C and R273H constructs (Tet-One inducible expression system; Takara) were stably expressed in NCIH1299 cells by lentiviral transduction. NUGC3, A549, BxPC3, T3M4, HuH7, HCC2935, MFE296, NCIH1299, NCIH1299-inducible p53 Y220C, and NCIH1299-inducible p53 R273H cell lines were used for cell proliferation assay. 250-500 cells were seeded in each well of 384 plate and then compounds were dispensed into each well using Echo or Tecan. After 5 days of incubation, equal volume of CellTiter-Glo reagent (G7570; Promega) was added into each well and the plate was incubated at room temperature for 10 minutes with shaking. The luminescent signal was measured by PheraStar microplate reader and IC50 was calculated.

NUGC3 cells (p53 Y220C) = assay: Cell Proliferation Assay (CellTiter-Glo), NUGC3 p53 Y220C; type: cell-based; conditions: Homo sapiens, NUGC-3, 120 h, 5 days, read-out: CTG NUGC3 P53 Y220C IC50
Protocol: as §1

[2] = target: T1, p53 Y220C mutant protein (amino acid residues 94-293) (Homo sapiens, UniProt P04637, Y220C); assay: Surface Plasmon Resonance (SPR) assay, p53 Y220C Kd_kinetic; conditions: multi-cycle kinetics, 16 or 20 °C, pH 7.5, 1:1 binding model
T1 construct: p53 Y220C mutant protein (amino acid residues 94-293)
Protocol: SPR experiments are performed on a Biacore 8K instrument. […] Compounds are 2-fold, 7-point serial diluted; the top concentration varies depending on the potency. Compound binding affinities are measured in the multi-cycle kinetics mode, at 30 μL/min flow rate with 60 seconds association time and 120 seconds dissociation time. The running buffer contains 50 mM Tris, pH 7.5, 100 mM NaCl, 1 mM DTT, 0.01% Brij35, 0.05% Tween-20 and 1% DMSO. The assay temperature is maintained at 16 or 20 °C and data are fit into the 1:1 binding model using the Biacore Insight Evaluation software.

p53 Y220C = p53 Y220C (Homo sapiens, UniProt P04637, Y220C); assay: Luciferase Reporter Assay, p53 Y220C (NCIH1299 cells with inducible p53 Y220C and p53 response element-luciferase); type: cell-based; conditions: 6 hour compound treatment, read-out: Luc P53 Y220C AC50
Protocol: Luciferase reporter (Luc) driven by p53 response element (LTV-p53-Luc (SKU #: LTLR007); G&P Biosciences) and inducible p53 Y220C construct (Tet-One inducible expression system; Takara) were stably expressed in NCIH1299 cells by lentiviral transduction. The cells were then used for p53 reporter assay. 5,000 cells were seeded in each well of 384 plate and cultured in 0.5 ug/mL doxycycline (D3072; Sigma) containing medium for 24 hours before compound treatment. After 6 hour of compound treatment, equal volume of One-Glo reagent (E6110; Promega) was added to each well and the plate was incubated for 5 minutes with shaking at room temperature. The luciferase activity was immediately measured with PheraStar microplate reader. Luciferase activity was stimulated by 10 uM of a tool compound as positive control and AC50 was calculated.

T1 sequence (P04637 94-293, stated change not applied): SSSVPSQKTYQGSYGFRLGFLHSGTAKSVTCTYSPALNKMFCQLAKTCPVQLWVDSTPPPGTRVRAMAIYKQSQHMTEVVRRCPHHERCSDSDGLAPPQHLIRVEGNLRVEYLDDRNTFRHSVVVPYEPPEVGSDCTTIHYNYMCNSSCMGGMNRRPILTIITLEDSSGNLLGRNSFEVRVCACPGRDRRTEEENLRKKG

In the case of CN1CC[C@@H](Nc2cccn3c(SC(F)(F)F)c(-c4noc(CNC(=O)C5COC5)n4)cc23)[C@@H](F)C1 [Example 25, N-{[3-(8-{[(3S,4R)-3-fluoro-1-methylpiperidin-4-yl]amino}-3-[(trifluoromethyl)sulfanyl]indolizin-2-yl)-1,2,4-oxadiazol-5-yl]methyl}oxetane-3-carboxamide], the IC50 [1] is reported as 1500 to 3000 nM, the IC50 (NUGC3 cells (p53 Y220C)) is reported as 1500 to 3000 nM and the Kd [2] is reported as under 10 nM. It also gave an AC50 (p53 Y220C) of 1500 to 3000 nM.
In the case of COc1ccc2n[nH]c(CC(=O)NCc3nc(-c4cc5c(N[C@@H]6CCN(C)C[C@@H]6F)cccn5c4SC(F)(F)F)no3)c2c1 [Example 9, N-{[3-(8-{[(3S,4R)-3-fluoro-1-methylpiperidin-4-yl]amino}-3-[(trifluoromethyl)sulfanyl]indolizin-2-yl)-1,2,4-oxadiazol-5-yl]methyl}-2-(5-methoxy-1H-indazol-3-yl)acetamide], the IC50 [1] is reported as 1500 to 3000 nM, the IC50 (NUGC3 cells (p53 Y220C)) is reported as 1500 to 3000 nM and the Kd [2] is reported as 100 to 1000 nM. For the same compound, the AC50 (p53 Y220C) was at least 3000 nM.
For CN1CC[C@@H](Nc2cccn3c(SC(F)(F)F)c(-c4noc(CNC(=O)C5CC(O)C5)n4)cc23)[C@@H](F)C1 (stereo partly drawn) [Example 8, (1r,3r)-N-{[3-(8-{[(3S,4R)-3-fluoro-1-methylpiperidin-4-yl]amino}-3-[(trifluoromethyl)sulfanyl]indolizin-2-yl)-1,2,4-oxadiazol-5-yl]methyl}-3-hydroxycyclobutane-1-carboxamide], the IC50 [1] was 750 to 1500 nM, the IC50 (NUGC3 cells (p53 Y220C)) was 1500 to 3000 nM and the Kd [2] was under 10 nM. The AC50 (p53 Y220C) was 1500 to 3000 nM.
CN1CC[C@@H](Nc2cccn3c(SC(F)(F)F)c(-c4noc(CNC(=O)C#CC5(NC(=O)OC(C)(C)C)CC5)n4)cc23)[C@@H](F)C1 [Example 44, tert-butyl N-{1-[2-({[3-(8-{[(3S,4R)-3-fluoro-1-methylpiperidin-4-yl]amino}-3-[(trifluoromethyl)sulfanyl]indolizin-2-yl)-1,2,4-oxadiazol-5-yl]methyl}carbamoyl)eth-1-yn-1-yl]cyclopropyl}carbamate] was tested, and the IC50 [1] was under 750 nM, the IC50 (NUGC3 cells (p53 Y220C)) was 750 to 1500 nM and the Kd [2] was under 10 nM. For the same compound, the AC50 (p53 Y220C) was under 750 nM.
For COC1(C(=O)NCc2nc(-c3cc4c(N[C@@H]5CCN(C)C[C@@H]5F)cccn4c3SC(F)(F)F)no2)CC1 [Example 26, N-{[3-(8-{[(3S,4R)-3-fluoro-1-methylpiperidin-4-yl]amino}-3-[(trifluoromethyl)sulfanyl]indolizin-2-yl)-1,2,4-oxadiazol-5-yl]methyl}-1-methoxycyclopropane-1-carboxamide], the IC50 [1] was 1500 to 3000 nM, the IC50 (NUGC3 cells (p53 Y220C)) was 1500 to 3000 nM and the Kd [2] was 10 to 100 nM. It also gave an AC50 (p53 Y220C) of 1500 to 3000 nM.
For CN1CC[C@@H](Nc2cccn3c(SC(F)(F)F)c(-c4noc(CNC(=O)c5cnc(N6CCOCC6)o5)n4)cc23)[C@@H](F)C1 [Example 66, N-{[3-(8-{[(3S,4R)-3-fluoro-1-methylpiperidin-4-yl]amino}-3-[(trifluoromethyl)sulfanyl]indolizin-2-yl)-1,2,4-oxadiazol-5-yl]methyl}-2-(morpholin-4-yl)-1,3-oxazole-5-carboxamide], the IC50 [1] was under 750 nM, the IC50 (NUGC3 cells (p53 Y220C)) was under 750 nM and the Kd [2] was under 10 nM. For the same compound, the AC50 (p53 Y220C) was under 750 nM.
Cc1c(C(=O)NCc2nc(-c3cc4c(N[C@@H]5CCN(C)C[C@@H]5F)cccn4c3SC(F)(F)F)no2)sc2nc[nH]c(=O)c12 [Example 14, N-{[3-(8-{[(3S,4R)-3-fluoro-1-methylpiperidin-4-yl]amino}-3-[(trifluoromethyl)sulfanyl]indolizin-2-yl)-1,2,4-oxadiazol-5-yl]methyl}-5-methyl-4-oxo-3H-thieno[2,3-d]pyrimidine-6-carboxamide] gave an IC50 [1] of 750 to 1500 nM, an IC50 (NUGC3 cells (p53 Y220C)) of 750 to 1500 nM and a Kd [2] of 10 to 100 nM. The AC50 (p53 Y220C) was 1500 to 3000 nM.
In the case of CN1CC[C@@H](Nc2cccn3c(SC(F)(F)F)c(-c4noc(CNC(=O)C5(C#N)CC5)n4)cc23)[C@@H](F)C1 [Example 28, 1-cyano-N-{[3-(8-{[(3S,4R)-3-fluoro-1-methylpiperidin-4-yl]amino}-3-[(trifluoromethyl)sulfanyl]indolizin-2-yl)-1,2,4-oxadiazol-5-yl]methyl}cyclopropane-1-carboxamide], the IC50 [1] is reported as under 750 nM, the IC50 (NUGC3 cells (p53 Y220C)) is reported as under 750 nM and the AC50 (p53 Y220C) is reported as under 750 nM.
With CN1CC[C@@H](Nc2cccn3c(SC(F)(F)F)c(-c4noc(CNC(=O)c5ccc6c(c5)NC(=O)CN6C)n4)cc23)[C@@H](F)C1 [Example 23, N-{[3-(8-{[(3S,4R)-3-fluoro-1-methylpiperidin-4-yl]amino}-3-[(trifluoromethyl)sulfanyl]indolizin-2-yl)-1,2,4-oxadiazol-5-yl]methyl}-1-methyl-3-oxo-2,4-dihydroquinoxaline-6-carboxamide] the IC50 [1] was under 750 nM, the IC50 (NUGC3 cells (p53 Y220C)) was under 750 nM and the Kd [2] was under 10 nM. It also gave an AC50 (p53 Y220C) of under 750 nM.
COC(C)(C)C(=O)NCc1nc(-c2cc3c(N[C@@H]4CCN(C)C[C@@H]4F)cccn3c2SC(F)(F)F)no1 [Example 61, N-{[3-(8-{[(3S,4R)-3-fluoro-1-methylpiperidin-4-yl]amino}-3-[(trifluoromethyl)sulfanyl]indolizin-2-yl)-1,2,4-oxadiazol-5-yl]methyl}-2-methoxy-2-methylpropanamide] gave an IC50 [1] of at least 3000 nM, an IC50 (NUGC3 cells (p53 Y220C)) of at least 3000 nM and a Kd [2] of 10 to 100 nM. It also gave an AC50 (p53 Y220C) of at least 3000 nM.
For COc1ccc2nc(C(=O)NCc3nc(-c4cc5c(N[C@@H]6CCN(C)C[C@@H]6F)cccn5c4SC(F)(F)F)no3)ccc2c1 [Example 34, N-{[3-(8-{[(3S,4R)-3-fluoro-1-methylpiperidin-4-yl]amino}-3-[(trifluoromethyl)sulfanyl]indolizin-2-yl)-1,2,4-oxadiazol-5-yl]methyl}-6-methoxyquinoline-2-carboxamide], the IC50 [1] was 1500 to 3000 nM, the IC50 (NUGC3 cells (p53 Y220C)) was 1500 to 3000 nM and the Kd [2] was 10 to 100 nM. The AC50 (p53 Y220C) was at least 3000 nM.
CN1CC[C@@H](Nc2cccn3c(SC(F)(F)F)c(-c4noc(CNC(=O)c5ccn(C(C)(C)C)c5)n4)cc23)[C@@H](F)C1 [Example 7, 1-tert-butyl-N-{[3-(8-{[(3S,4R)-3-fluoro-1-methylpiperidin-4-yl]amino}-3-[(trifluoromethyl)sulfanyl]indolizin-2-yl)-1,2,4-oxadiazol-5-yl]methyl}pyrrole-3-carboxamide] gave an IC50 [1] of under 750 nM, an IC50 (NUGC3 cells (p53 Y220C)) of under 750 nM and a Kd [2] of under 10 nM. It also gave an AC50 (p53 Y220C) of under 750 nM.
CN1CC[C@@H](Nc2cccn3c(SC(F)(F)F)c(-c4noc(CNC(=O)C5CC(F)(F)C5)n4)cc23)[C@@H](F)C1 [Example 10, 3,3-difluoro-N-{[3-(8-{[(3S,4R)-3-fluoro-1-methylpiperidin-4-yl]amino}-3-[(trifluoromethyl)sulfanyl]indolizin-2-yl)-1,2,4-oxadiazol-5-yl]methyl}cyclobutane-1-carboxamide] gave an IC50 [1] of at least 3000 nM, an IC50 (NUGC3 cells (p53 Y220C)) of at least 3000 nM and an AC50 (p53 Y220C) of 1500 to 3000 nM.
Work on CN1CC[C@@H](Nc2cccn3c(SC(F)(F)F)c(-c4noc(CNC(=O)c5cnc(N)o5)n4)cc23)[C@@H](F)C1 [Example 77] yielded an IC50 (NUGC3 cells (p53 Y220C)) of under 750 nM, a Kd [2] of under 10 nM and an AC50 (p53 Y220C) of under 750 nM.
CN1CC[C@@H](Nc2cccn3c(SC(F)(F)F)c(-c4noc(CNC(=O)c5ncon5)n4)cc23)[C@@H](F)C1 [Example 74] gave an IC50 (NUGC3 cells (p53 Y220C)) of 1500 to 3000 nM, a Kd [2] of under 10 nM and an AC50 (p53 Y220C) of 750 to 1500 nM.
CN1CC[C@@H](Nc2cccn3c(SC(F)(F)F)c(-c4noc(CNC(=O)c5nnc(N(C)C)s5)n4)cc23)[C@@H](F)C1 [Example 82] showed an IC50 (NUGC3 cells (p53 Y220C)) of under 750 nM, a Kd [2] of under 10 nM and an AC50 (p53 Y220C) of under 750 nM.
With CN1CC[C@@H](Nc2cccn3c(SC(F)(F)F)c(-c4noc(CNC(=O)c5cnco5)n4)cc23)[C@@H](F)C1 [Example 72] the IC50 (NUGC3 cells (p53 Y220C)) was under 750 nM, the Kd [2] was under 10 nM and the AC50 (p53 Y220C) was under 750 nM.
With CN1CC[C@@H](Nc2cccn3c(SC(F)(F)F)c(-c4noc(CNC(=O)C5(NC(=O)OC(C)(C)C)CC5)n4)cc23)[C@@H](F)C1 [Example 22, tert-butyl N-[1-({[3-(8-{[(3S,4R)-3-fluoro-1-methylpiperidin-4-yl]amino}-3-[(trifluoromethyl)sulfanyl]indolizin-2-yl)-1,2,4-oxadiazol-5-yl]methyl}carbamoyl)cyclopropyl]carbamate] the IC50 [1] was at least 3000 nM, the IC50 (NUGC3 cells (p53 Y220C)) was 1500 to 3000 nM and the AC50 (p53 Y220C) was at least 3000 nM.
